# Test results from US20040138204A1, “Compositions and methods for pain reduction” (priority 2002, published 2004).
# Assays:
# [1] = test system: rat hind paw withdrawal (nociception); experiment: Von Frey fiber behavioral test after epidural glutamate infusion; format: in vivo; conditions: epidural infusion 2.0-0.0002 mM for 72 hours; most prominent on day 3, also day 1
# Procedure: Behavioral experiments have been completed at a wider range of concentrations. Rats are infused with epludial glutamate at concentrations of 2.0, 0.2, 0.02, 0.002 and 0.0002 mM for 72 hours (3 days). Von Frey fiber examinations were performed on left and right hind paws 24 hours before infusion and then 24, 72, and 144 hours after onset of glutamate infusion. The experimenter was blinded as to which infusate was used. Contralateral to ipsilateral differences were analyzed with respect to concentration of glutamate infusion and hours post-procedure. […] The response was most significant at the 0.02 mM concentration but present at 0.002 and 0.2 mM concentrations. […]
# Behavioral Tests—The von Frey Fiber mechanical allodynia assay is performed 24 hours preoperatively and 24, 72, and 144 hours postoperatively. […] Starting with 0.6 grams of force and working up to 1, 1.4, 2, 4, 6, 8, 10, 15, and finally 26, each paw's response is recorded. […]
# The protocol has the experimenter tap the bottom surface of the paw with one fiber at a time for six seconds each. […] If a response is not recognized, then the next fiber (one that elicited 1.0 grams of force) is applied, and so on in increasing order of force until a paw withdrawal response was recorded. After the initial response is recorded, the experimenter completes the testing procedure by testing the same paw with fibers in descending order of force. […]
# [2] = test system: AMPA, NMDA and kainate receptors, dorsal horn laminae I-III; experiment: Immunohistochemistry and densitometry of dorsal horn glutamate receptor expression after epidural glutamate infusion; format: in vivo, rat
# Procedure: Immunohistochemical studies show expression of dorsal horn glutamate receptors in painful conditions involving the lower extremity in the rat. A relatively high concentration (2 mmol/L) of glutamate was infused for 72 hours (same infusion time period as in previous experiments) and densitometry was performed at 40× AMPA, NMDA and kainate for receptor expression at dorsal horn laminae I-III bilaterally, at spinal cord levels where the dorsal root ganglion input would enter the spinal cord dorsal horn, to determine whether receptor expression was increased. The microscopist was blinded to the nature of the sample.
# [3] = 2 mmol/L glutamate, 72 hours, p<0.01
compound,measurement,setting,value
N[C@@H](CCC(=O)O)C(=O)O [glutamate],von Frey contralateral to ipsilateral difference (hypersensitivity),[1],significant hypersensitivity postoperatively
same,"AMPA, NMDA and kainate receptor expression versus saline-infused controls","[2]; 2 mmol/L glutamate infused for 72 hours, dorsal horn laminae I-III, two-tailed T test",upregulation of expression over saline-infused controls
same,AMPA receptor expression ipsilateral versus contralateral,[2]; [3],upregulation of receptor expression ipsilateral to the side of infusion
same,NMDA receptor expression ipsilateral versus contralateral,[2]; [3],upregulation of receptor expression ipsilateral to the side of infusion
same,kainate receptor expression ipsilateral versus contralateral,"[2]; 2 mmol/L glutamate, 72 hours, p<0.05",upregulation of receptor expression ipsilateral to the side of infusion
